Earlier results in patent US20070021351A1, “Liver/plasma concentration ratio for dosing hepatitis C virus protease inhibitor” (Schering Corporation, priority 2005, published 2007).

Details: in vivo; cited from earlier work

SMILES	volume of distribution
C[C@H]1O[C@@H](O[C@H]2[C@@H](O)C[C@H](O[C@H]3[C@@H](O)C[C@H](O[C@H]4CC[C@@]5(C)[C@H](CC[C@@H]6[C@@H]5C[C@@H](O)[C@]5(C)[C@@H](C7=CC(=O)OC7)CC[C@]65O)C4)O[C@@H]3C)O[C@@H]2C)C[C@H](O)[C@@H]1O [digoxin, reference compound]	~450 L
CCO [ethanol, Ethanol]	about 35 L
